Results reported in paper PMC10945555, “Improving Activity of New Arylurea Agents against Multidrug-Resistant and Biofilm-Producing Staphylococcus epidermidis” (ACS Medicinal Chemistry Letters, 2024).
≈ marks a conversion by molar mass, not a printed value. Where two headings read alike, the source gives them in different places.

What was measured:
horse red blood cells = assay: Hemolytic activity assay
Experimental: 2.3.3 Hemolytic activity assay
The hemolytic properties of tested compound were evaluated according to previously reported procedure.6 Defibrinated horse red blood cells purchased from Thermo Fisher Scientific (Germany) were washed with PBS (3000 rpm, 10 min at 4 °C) for three times followed by PBS dilution to obtain a 8% suspension. Then, 100 μL of the resulting suspensions […]
were treated with 100 μL of tested compound at the final concentration of 200 μM, and incubated at 37 °C for 1 h. Triton X-100 (2%) and PBS were used as positive and negative controls, respectively. After centrifugation at 3000 rpm for 3 min, 100 μL of the supernatants were transferred to a 96 well microtiter plate and the hemoglobin release was determined in a SpectraMax iD3 reader (Molecular Devices) by absorption at 540 nm. […]

[1] = test system: Staphylococcus epidermidis ATCC 35984; assay: MIC, broth microdilution, MDR/BPSE reference strain; type: cell-based; settings: Staphylococcus epidermidis, ATCC35984, read-out: MIC MDR/BPSE, Staphylococcus epidermidis ATCC 35984
Outline: (§1)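 Compounds tested as free bases dissolved in DMSO (1 mg/mL stock); determinations done twice; linezolid as positive control.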

[2] = test system: clinical MDR Staphylococcus epidermidis isolates; assay: MIC, broth microdilution, 81 clinical MDR strains; type: cell-based; settings: Staphylococcus epidermidis
Outline: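 MICs were determined by twofold broth microdilution in cation-adjusted Mueller-Hinton II broth per EUCAST, over 50–0.1 µg/mL, in duplicate. Compounds were tested as free bases dissolved in DMSO; MIC50 and MIC90 were derived across the 81 clinical MDR S. epidermidis strains.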

[3] = test system: Staphylococcus aureus ATCC BAA-976; assay: MIC, broth microdilution, MDR/BPSA reference strain; type: cell-based; settings: ATCCBAA976; Staphylococcus aureus ATCC BAA-976; read-out: MIC MDR/BPSA
Outline: as §1

For O=S(=O)(NC1CCN(CCC(Oc2ccc(C(F)(F)F)cc2)c2cccs2)CC1)c1cccc(Cl)c1 (stereo not shown) [Compound 14], the “%hem (hemolytic activity)” value (horse red blood cells; 200 μM, 1 h, n = 3) was 0.27%, the lysis of erythrocytes (horse red blood cells; concentrations up to 200 μM) was “None of them caused lysis of erythrocytes” and the MIC [1] was ≤ 0.8 µg/mL. For the same compound, the MIC ([2]; clinical strain 1 (Table S2), read-out: MIC) was 0.1 µg/mL (≈ 0.179 µM), the MIC ([2]; clinical strain 2 (Table S2), read-out: MIC) was 0.4 µg/mL (≈ 0.715 µM) and the MIC ([2]; clinical strain 3 (Table S2), read-out: MIC) was 0.8 µg/mL (≈ 1.43 µM). It also gave an MIC ([2]; clinical strain 4 (Table S2), read-out: MIC) of 1.6 µg/mL (≈ 2.86 µM), an MIC ([2]; clinical strain 5 (Table S2), read-out: MIC) of 3.12 µg/mL (≈ 5.59 µM) and an MIC ([2]; clinical strain 6 (Table S2), read-out: MIC) of 0.8 µg/mL (≈ 1.43 µM). The MIC ([2]; clinical strain 7 (Table S2), read-out: MIC) was 3.12 µg/mL (≈ 5.59 µM), the MIC ([2]; clinical strain 8 (Table S2), read-out: MIC) was 1.6 µg/mL (≈ 2.86 µM) and the MIC ([2]; clinical strain 9 (Table S2), read-out: MIC) was 1.6 µg/mL (≈ 2.86 µM). For the same compound, the MIC ([2]; clinical strain 10 (Table S2), read-out: MIC) was 3.12 µg/mL (≈ 5.59 µM), the MIC ([2]; clinical strain 11 (Table S2), read-out: MIC) was 3.12 µg/mL (≈ 5.59 µM) and the MIC ([2]; clinical strain 12 (Table S2), read-out: MIC) was 6.25 µg/mL (≈ 11.2 µM). It also gave an MIC ([2]; clinical strain 13 (Table S2), read-out: MIC) of 6.25 µg/mL (≈ 11.2 µM), an MIC ([2]; clinical strain 14 (Table S2), read-out: MIC) of 6.25 µg/mL (≈ 11.2 µM) and an MIC ([2]; clinical strain 15 (Table S2), read-out: MIC) of 1.6 µg/mL (≈ 2.86 µM). The MIC ([2]; clinical strain 16 (Table S2), read-out: MIC) was 1.6 µg/mL (≈ 2.86 µM), the MIC ([2]; clinical strain 17 (Table S2), read-out: MIC) was 3.12 µg/mL (≈ 5.59 µM) and the MIC ([2]; clinical strain 18 (Table S2), read-out: MIC) was 3.12 µg/mL (≈ 5.59 µM). For the same compound, the MIC ([2]; clinical strain 19 (Table S2), read-out: MIC) was 3.12 µg/mL (≈ 5.59 µM), the MIC ([2]; clinical strain 20 (Table S2), read-out: MIC) was 1.6 µg/mL (≈ 2.86 µM) and the MIC ([2]; clinical strain 21 (Table S2), read-out: MIC) was 3.12 µg/mL (≈ 5.59 µM). For the same compound, the MIC ([2]; clinical strain 22 (Table S2), read-out: MIC) was 6.25 µg/mL (≈ 11.2 µM), the MIC ([2]; clinical strain 23 (Table S2), read-out: MIC) was 12.5 µg/mL (≈ 22.4 µM) and the MIC ([2]; clinical strain 24 (Table S2), read-out: MIC) was 6.25 µg/mL (≈ 11.2 µM). It also gave an MIC ([2]; clinical strain 25 (Table S2), read-out: MIC) of 6.25 µg/mL (≈ 11.2 µM), an MIC ([2]; clinical strain 26 (Table S2), read-out: MIC) of 6.25 µg/mL (≈ 11.2 µM) and an MIC ([2]; clinical strain 27 (Table S2), read-out: MIC) of 3.12 µg/mL (≈ 5.59 µM). For the same compound, the MIC ([2]; clinical strain 28 (Table S2), read-out: MIC) was 12.5 µg/mL (≈ 22.4 µM), the MIC ([2]; clinical strain 29 (Table S2), read-out: MIC) was 12.5 µg/mL (≈ 22.4 µM) and the MIC ([2]; clinical strain 30 (Table S2), read-out: MIC) was 12.5 µg/mL (≈ 22.4 µM). For the same compound, the MIC ([2]; clinical strain 31 (Table S2), read-out: MIC) was 12.5 µg/mL (≈ 22.4 µM), the MIC ([2]; clinical strain 32 (Table S2), read-out: MIC) was 6.25 µg/mL (≈ 11.2 µM) and the MIC ([2]; clinical strain 33 (Table S2), read-out: MIC) was 3.12 µg/mL (≈ 5.59 µM). It also gave an MIC ([2]; clinical strain 34 (Table S2), read-out: MIC) of 12.5 µg/mL (≈ 22.4 µM), an MIC ([2]; clinical strain 35 (Table S2), read-out: MIC) of 12.5 µg/mL (≈ 22.4 µM) and an MIC ([2]; clinical strain 36 (Table S2), read-out: MIC) of 50 µg/mL (≈ 89.4 µM). For the same compound, the MIC ([2]; clinical strain 37 (Table S2), read-out: MIC) was 12.5 µg/mL (≈ 22.4 µM), the MIC ([2]; clinical strain 38 (Table S2), read-out: MIC) was 12.5 µg/mL (≈ 22.4 µM) and the MIC ([2]; clinical strain 39 (Table S2), read-out: MIC) was 12.5 µg/mL (≈ 22.4 µM). It also gave an MIC ([2]; clinical strain 40 (Table S2), read-out: MIC) of 25 µg/mL (≈ 44.7 µM), an MIC ([2]; clinical strain 41 (Table S2), read-out: MIC) of 25 µg/mL (≈ 44.7 µM) and an MIC ([2]; clinical strain 42 (Table S2), read-out: MIC) of 12.5 µg/mL (≈ 22.4 µM). It also gave an MIC ([2]; clinical strain 43 (Table S2), read-out: MIC) of 25 µg/mL (≈ 44.7 µM), an MIC ([2]; clinical strain 44 (Table S2), read-out: MIC) of 50 µg/mL (≈ 89.4 µM) and an MIC ([2]; clinical strain 45 (Table S2), read-out: MIC) of 25 µg/mL (≈ 44.7 µM). For the same compound, the MIC ([2]; clinical strain 46 (Table S2), read-out: MIC) was 50 µg/mL (≈ 89.4 µM), the MIC ([2]; clinical strain 47 (Table S2), read-out: MIC) was 25 µg/mL (≈ 44.7 µM) and the MIC ([2]; clinical strain 48 (Table S2), read-out: MIC) was 3.12 µg/mL (≈ 5.59 µM). The MIC ([2]; clinical strain 49 (Table S2), read-out: MIC) was 0.1 µg/mL (≈ 0.179 µM), the MIC ([2]; clinical strain 50 (Table S2), read-out: MIC) was 50 µg/mL (≈ 89.4 µM) and the MIC ([2]; clinical strain 51 (Table S2), read-out: MIC) was 50 µg/mL (≈ 89.4 µM). It also gave an MIC ([2]; clinical strain 52 (Table S2), read-out: MIC) of 3.12 µg/mL (≈ 5.59 µM), an MIC ([2]; clinical strain 53 (Table S2), read-out: MIC) of 12.5 µg/mL (≈ 22.4 µM) and an MIC ([2]; clinical strain 54 (Table S2), read-out: MIC) of 12.5 µg/mL (≈ 22.4 µM). It also gave an MIC ([2]; clinical strain 55 (Table S2), read-out: MIC) of 50 µg/mL (≈ 89.4 µM), an MIC ([2]; clinical strain 56 (Table S2), read-out: MIC) of 3.12 µg/mL (≈ 5.59 µM) and an MIC ([2]; clinical strain 57 (Table S2), read-out: MIC) of 12.5 µg/mL (≈ 22.4 µM). For the same compound, the MIC ([2]; clinical strain 58 (Table S2), read-out: MIC) was 6.25 µg/mL (≈ 11.2 µM), the MIC ([2]; clinical strain 59 (Table S2), read-out: MIC) was 50 µg/mL (≈ 89.4 µM) and the MIC ([2]; clinical strain 60 (Table S2), read-out: MIC) was 3.12 µg/mL (≈ 5.59 µM). The MIC ([2]; clinical strain 61 (Table S2), read-out: MIC) was 50 µg/mL (≈ 89.4 µM), the MIC ([2]; clinical strain 62 (Table S2), read-out: MIC) was 6.25 µg/mL (≈ 11.2 µM) and the MIC ([2]; clinical strain 63 (Table S2), read-out: MIC) was 0.4 µg/mL (≈ 0.715 µM). The MIC ([2]; clinical strain 64 (Table S2), read-out: MIC) was 6.25 µg/mL (≈ 11.2 µM), the MIC ([2]; clinical strain 65 (Table S2), read-out: MIC) was 6.25 µg/mL (≈ 11.2 µM) and the MIC ([2]; clinical strain 66 (Table S2), read-out: MIC) was 50 µg/mL (≈ 89.4 µM). It also gave an MIC ([2]; clinical strain 67 (Table S2), read-out: MIC) of 50 µg/mL (≈ 89.4 µM), an MIC ([2]; clinical strain 68 (Table S2), read-out: MIC) of 50 µg/mL (≈ 89.4 µM) and an MIC ([2]; clinical strain 69 (Table S2), read-out: MIC) of 3.12 µg/mL (≈ 5.59 µM). It also gave an MIC ([2]; clinical strain 70 (Table S2), read-out: MIC) of 50 µg/mL (≈ 89.4 µM), an MIC ([2]; clinical strain 71 (Table S2), read-out: MIC) of 50 µg/mL (≈ 89.4 µM) and an MIC ([2]; clinical strain 72 (Table S2), read-out: MIC) of 3.12 µg/mL (≈ 5.59 µM). The MIC ([2]; clinical strain 73 (Table S2), read-out: MIC) was 0.8 µg/mL (≈ 1.43 µM), the MIC ([2]; clinical strain 74 (Table S2), read-out: MIC) was 50 µg/mL (≈ 89.4 µM) and the MIC ([2]; clinical strain 75 (Table S2), read-out: MIC) was 6.25 µg/mL (≈ 11.2 µM). It also gave an MIC ([2]; clinical strain 76 (Table S2), read-out: MIC) of 3.12 µg/mL (≈ 5.59 µM), an MIC ([2]; clinical strain 77 (Table S2), read-out: MIC) of 6.25 µg/mL (≈ 11.2 µM) and an MIC ([2]; clinical strain 78 (Table S2), read-out: MIC) of 6.25 µg/mL (≈ 11.2 µM). It also gave an MIC ([2]; clinical strain 79 (Table S2), read-out: MIC) of 6.25 µg/mL (≈ 11.2 µM), an MIC ([2]; clinical strain 80 (Table S2), read-out: MIC) of 12.5 µg/mL (≈ 22.4 µM) and an MIC ([2]; clinical strain 81 (Table S2), read-out: MIC) of 6.25 µg/mL (≈ 11.2 µM). For the same compound, the MIC ([2]; mean of MIC values against clinical MDR-SE isolates, read-out: mean MIC) was 10 µg/mL (≈ 17.9 µM), the MIC50 ([2]; 81 clinical strains, concentration inhibiting growth of 50% clinical isolates) was 6.25 µg/mL (≈ 11.2 µM) and the MIC90 ([2]; 81 clinical strains, concentration inhibiting growth of 90% of clinical isolates) was 50 µg/mL (≈ 89.4 µM). The MIC [3] was 12.5 µg/mL (≈ 22.4 µM).
